According to patent publication US20100029590A1, “METHODS FOR TREATING OR PREVENTING HEMORRHAGIC CYSTITIS USING A GLYCEROPHOSPHATE SALT” (PRELIEF INC., priority 2007, published 2010):

System: patients suffering from radiation cystitis
Assay: Clinical observation of radiation cystitis patients after prostatic brachytherapy given oral Prelief® (CGP): average number of micturitions per night and symptoms
Assay type: in vivo, human
Conditions: for frequency of urination: six patients
Excerpt: This example depicts a method of using calcium glycerophosphate (CGP) in treating radiation cystitis in a clinical setting. Methods similar to that exemplified herein, however, is equally applicable to using any glycerophosphate salt in treating or preventing any type of hemorrhagic cystitis.
All six patients, aging from 51 to 74 year old at the time, were under prostatic brachytherapy treatment. […] Two Prelief® tablets, each containing about 0.335 gram CGP, were orally administered to each patient three times a day starting at about 0 to 8 months after the brachytherapy. […] Some patients were also treated with another therapy after the radiation, such as by a stent, or with the administration of AINES, Trospium Chloride, or Tamsulosina. On their post brachytherapy visitations, each patient was asked, among other things, the average number of micturitions per night.
This is in comparison to up to 12 times per night expected micturations in severe cases of this type when patients are given regular medications. The frequency of urination was further reduced by continuing oral administration of CGP.
14, 2002. […] Oral administration of CGP was again reported to be effective in reducing symptoms of hemorrhagic cystitis, e.g., the frequency of urination was reduced to about 7 times or about 2.5 times per night after oral administration of CGP for about 4 months or about 9 months, respectively, following the removal of the stent.

With calcium glycerophosphate [CGP] the “frequency of urination, patient #1” value (patient #1, about 1 month following removal of a stent (increased symptoms)) was “about 11 times per night”, the “frequency of urination, patient #1” value (patient #1, about 3 months following brachytherapy, before oral CGP (baseline)) was “about 11 times per night” and the “frequency of urination, patient #1” value (patient #1, after oral administration of CGP for about 5 months) was “about 7 times per night”. For the same substance, the “frequency of urination, patient #1” value (patient #1, oral CGP for about 4 months following removal of the stent) was “about 7 times per night”, the “frequency of urination, patient #1” value (patient #1, oral CGP for about 9 months following removal of the stent) was “about 2.5 times per night” and the “symptoms of radiation cystitis” value (reported by each of the six patients after oral administration of CGP) was “Reduced symptoms of radiation cystitis”. The pain in bladder (reported by the patients, oral CGP (data not shown)) was “reduced pain in bladder”, the frequency of urination (after oral administration of CGP for about three months) was 4.5-7 times per night and the frequency of urination (before oral administration of CGP (baseline)) was 8-11 times per night. The frequency of urination (succeeding seven months of oral CGP) was 3-7 times per night.
